Data published in ChEMBL document CHEMBL1157947, “Antineoplastic Agents. 554. The manitoba bacterium Streptomyces sp” (2006).
Values after ≈ are worked out from the molar mass of the structure shown.

How the values were obtained:
Type in all cases: functional
P388 = assay: Growth inhibition of mouse P388 cells
BXPC-3 = assay: Growth inhibition of human BXPC3 cells
MCF7 = assay: Growth inhibition of human MCF7 cells
SF-268 = assay: Growth inhibition of human SF268 cells
NCI-H460 = assay: Growth inhibition of human NCI-H460 cells
KM-20L2 = assay: Growth inhibition of human KM20L2 cells
DU-145 = assay: Growth inhibition of human DU145 cells
Streptococcus pneumoniae = assay: Antibacterial activity against Streptococcus pneumoniae ATCC 6303 by broth microdilution method
Neisseria gonorrhoeae = assay: Antibacterial activity against Neisseria gonorrhoeae ATCC 49226 by broth microdilution method
Micrococcus luteus = assay: Antibacterial activity against Micrococcus luteus by broth microdilution method
[1] = system: Stenotrophomonas maltophilia; assay: Antibacterial activity against Stenotrophomonas maltophilia by broth microdilution method
Staphylococcus aureus = assay: Antibacterial activity against Staphylococcus aureus by broth microdilution method
Escherichia coli = assay: Antibacterial activity against sEscherichia coli by broth microdilution method
Enterobacter cloacae = assay: Antibacterial activity against sEnterobacter cloacae by broth microdilution method
Enterococcus faecalis = assay: Antibacterial activity against sEnterococcus faecalis by broth microdilution method
Candida albicans = assay: Antifungal activity against Candida albicans by broth microdilution method
Cryptococcus neoformans = assay: […] activity against Cryptococcus neoformans by broth microdilution method

GI50 (P388)	GI50 (BXPC-3)	GI50 (MCF7)	GI50 (NCI-H460)	GI50 (DU-145)	MIC (Streptococcus pneumoniae)	MIC (Neisseria gonorrhoeae)	MIC (Micrococcus luteus)	MIC [1]	MIC (Staphylococcus aureus)	MIC (Escherichia coli)	MIC (Enterobacter cloacae)	MIC (Enterococcus faecalis)	MIC (Candida albicans)	MIC (Cryptococcus neoformans)	Compound	GI50 (SF-268)	GI50 (KM-20L2)
2.8 µg/mL (≈ 16 µM)	0.31 µg/mL (≈ 1.77 µM)	0.82 µg/mL (≈ 4.68 µM)	0.17 µg/mL (≈ 0.97 µM)	0.21 µg/mL (≈ 1.2 µM)											O=C(CO)c1c[nH]c2ccccc12	1.8 µg/mL (≈ 10.3 µM)	1.2 µg/mL (≈ 6.85 µM)
1.4 µg/mL (≈ 4.69 µM)	0.54 µg/mL (≈ 1.81 µM)	0.49 µg/mL (≈ 1.64 µM)	1.2 µg/mL (≈ 4.02 µM)	1 µg/mL (≈ 3.35 µM)	16 µg/mL (≈ 53.6 µM)	4 µg/mL (≈ 13.4 µM)	> 64 µg/mL	> 64 µg/mL	> 64 µg/mL	> 64 µg/mL	> 64 µg/mL	> 64 µg/mL	> 64 µg/mL	> 64 µg/mL	Cc1cc(=O)n(C)c2c1C(=O)c1c(C)cc(=O)n(C)c1C2=O [DIAZAANTHRAQUINONE]	1.3 µg/mL (≈ 4.36 µM)	0.32 µg/mL (≈ 1.07 µM)
